In brackets after ≈: the same amount, converted by molar mass.

Drawing on ChEMBL document CHEMBL1144003, “Trypanocidal activity of a new pterocarpan and other secondary metabolites of plants from Northeastern Brazil flora” (Bioorg Med Chem, 2008), this text covers IC50 for nine compounds.

Assay [1] has as its system PBL. Description: Cytotoxicity against human PBL cells after 72 hrs by alamar blue assay. The class given is cell-based. A general note: The colour change of resazurin is a common sign of viable cells or microbes.
Assay [2] relates to Trypanosoma cruzi. Put plainly: Trypanocidal activity against Trypanosoma cruzi Berenice after 72 hrs. Type of assay: functional, organism-based.
For assay [3], the system named is HCT-8. Description: Antiproliferative activity against human HCT8 cells. The class given is functional, cell-based.
Assay [4] has as its system B16. Put plainly: Antiproliferative activity against mouse B16 cells. The class given is functional, cell-based.
The test system of assay [5] is CCRF-CEM. Put plainly: Antiproliferative activity against human CEM cells. The class given is functional, cell-based.
In assay [6] the test system is HL-60. Put plainly: Antiproliferative activity against human HL60 cells. The class given is functional, cell-based.

What is called IC50 is the concentration at which inhibition is half-maximal. The low end stands for greater potency in that assay, the high end for weaker potency in that assay. For the compound `CC(C)=CCC/C(C)=C/Cc1cc2c(cc1O)OC[C@H]1c3cc4c(cc3O[C@@H]21)OCO4`, the 50% inhibitory concentration (IC50) in assay [1] is above 50 µg/mL; in assay [2], 12.2 µg/mL (≈ 29 µM).

In assay [2], `CC1=C(C)C(=O)O[C@@H]([C@]2(C)OC(=O)[C@]34CC[C@H]5[C@@H](C[C@H]6O[C@]67[C@@H](O)C=CC(=O)[C@]57C)[C@@H]3CC[C@H]24)C1` [WITHAPHYSALIN M] gave a half-maximal inhibitory concentration (IC50) of 0.7 µg/mL (≈ 1.45 µM).

On to `CC(C)=CCC/C(C)=C/Cc1c(O)ccc(C(=O)/C=C/c2ccc(O)c(O)c2)c1O`, for which the figures for the IC50 in assay [1] and in assay [2] were 23 µg/mL (≈ 56.4 µM) and 10.6 µg/mL (≈ 25.9 µM), respectively.

In turn, `COc1cccc2c1C(=O)c1c(O)c3c(c(O)c1C2=O)C[C@@](O)(C(=O)CO)C[C@@H]3O[C@H]1C[C@H](N)[C@H](O)[C@H](C)O1` [DOXORUBICIN] returned a half-inhibitory concentration (IC50) in assay [1] of 0.97 µg/mL (≈ 1.78 µM).

Consider `CC(C)=CCc1c(O)ccc2c1OC[C@H]1c3cc4c(cc3O[C@@H]21)OCO4`, for which the results for the concentration for half-maximal inhibition (IC50) in assay [1] and in assay [2] were above 50 µg/mL and 13.3 µg/mL (≈ 37.7 µM), respectively.

Consider `C[C@@]12C[C@H]3OC(=O)[C@@H]1CO[C@]14O[C@]5([C@H]2C1=O)[C@@](O)(CC[C@H]1[C@H]4C[C@H]2O[C@]24CC=CC(=O)[C@]14C)C(=O)O[C@@]35C` [PHYSALIN F], for which the half-inhibitory concentration (IC50) in assay [3] was 0.5 µg/mL (≈ 0.95 µM); in assay [4] it was 0.5 µg/mL (≈ 0.95 µM); in assay [1], 4.23 µg/mL (≈ 8.03 µM); in assay [2], 9.4 µg/mL (≈ 17.9 µM); in assay [5], 0.5 µg/mL (≈ 0.95 µM); in assay [6] it was 0.5 µg/mL (≈ 0.95 µM).

As to `COC1=C(OC)C(=O)C2=C(C[C@H]3[C@](C)(C2)C[C@@H]2C[C@@]23C)C1=O` (relative stereo), the half-maximal inhibitory concentration (IC50) in assay [1] came to 28.4 µg/mL (≈ 93.8 µM); in assay [2], 1.3 µg/mL (≈ 4.3 µM).

Regarding `CCOC1O[C@@](C)([C@H]2CC(C)=C(C)C(=O)O2)[C@H]2CC[C@H]3[C@@H]4C[C@H]5O[C@]56[C@@H](O)C=CC(=O)[C@]6(C)[C@H]4CC[C@]123` (stereo partly drawn) [WITHAPHYSALIN O], the IC50 in assay [2] was 0.3 µg/mL (≈ 0.585 µM).

In assay [2], `CC1=C(C)C(=O)O[C@@H]([C@]2(C)OC(=O)[C@]34CC[C@H]5[C@@H](C[C@H]6O[C@]67[C@@H](O)CCC(=O)[C@]57C)[C@@H]3CC[C@H]24)C1` [WITHAPHYSALIN N] returned an IC50 of 6.4 µg/mL (≈ 13.2 µM).
